The values that follow come from US20110039848A1, “FIVE-MEMBERED RING COMPOUND” (priority 2008, published 2011).

The structures appear in SMILES notation.

One assay deals with rat lung membrane SMBS. The assay is described as follows: Receptor-binding assessment test of compounds using rat lung membranes ([125I]-iodocyanopindolol ligand binding assay). The settings on record: ratio of inhibiting specific binding of [125I]-iodocyanopindolol to rat lung membrane SMBS; test compound 1 μM. On the procedure: Receptor-Binding Assessment Test of Compounds Using Rat Lung Membranes
The assessment test was carried out according to the method of Sugasawa, T. et al., J. Biol. Chem., 272, 21244-21252 (1997).
Preparation of Rat Lung Membranes
Lung taken out from SD male rat (7-week old under test, Charles River Laboratories Japan, Inc.) was removed trachea and blood vessels to shred and washed with iced tris-saline buffer (10 mM tris hydrochloric acid-154 mM sodium chloride, pH7.4). The resultant was homogenized by Hiscotron with ice-cold tris-saline buffer containing a homogenization buffer (1 mM ethylenediaminetetraacetic acid (EDTA), 1 mM 4-(2-aminoethyl)benzenesulfonyl fluoride (AEBSF), 5 μg/ml aprotinin, 5 μg/ml leupeptine) (maximum rate: 1 minute). The supernatant after low-speed centrifugation (1500×g, 20 minutes, 4° C.) was ultracentrifuged (100000×g, 20 minutes, 4° C.), and the pellet was suspended in tris-saline buffer to store at −80° C. The protein concentrations were determined by Bio-Rad Protein Assay Kit using bovine serum albumin (BSA) as a standard.
To each well in protein-nonabsorptive round-bottom 96-well assay plate (commercially available from Iwaki Glass Co., Ltd.) were added tris-saline buffer (200 μl) containing 1 nM [^125I]-iodocyanopindolol (commercially available from Amersham plc), 10 μM serotonine, 20 μm dl-propranolol, 10 μM phentolamine, 1.1 mM ascorbic acid and 100 μg lung membrane, and the mixture was pipetted to combine and then incubated at 37° C. for 30 minutes. The test compounds were dissolved in 100% dimethyl sulfoxide solution, and thereto was added 2 μl (final DMSO concentration: 1%). In order to calculate nonspecific binding amounts, to the mixture was added L-threo-3-(3,4-dihydroxyphenyl)-N-[3-(4-fluorophenyl)propyl]serine pyrrolidine amide at 100 μM of the final concentration as an alternative to the test compounds. During this time, 100 μl of 0.3% polyethyleneimine (PEI)/tris-saline buffer was added to MultiScreen plate (96-well B glass fiber, Millipore Cat. No. MAFB NOB10), and incubated for over 30 minutes. The resultant was filtered with aspiration (aspiration by the addition of 200 μl iced tris-saline buffer) to wash, and the reaction solutions on 96-well assay plate were filtered with aspiration to wash four times on MultiScreen plate. B glass fiber filter paper at the bottom of MultiScreen plate was punched out, and γ-ray doses of [^125I]-iodocyanopindolol trapped on the filter paper were determined as binding amounts. The binding amounts in the presence of DMSO (final concentration: 1%) were total binding amounts, and the binding amounts in the presence of 100 μM L-threo-3-(3,4-dihydroxyphenyl)-N-[3-(4-fluorophenyl)propyl]serine pyrrolidine amide were nonspecific binding amounts. The values subtracted the nonspecific binding amounts from the total binding amounts were the specific binding amounts. The binding activity of a compound was calculated according to the following formula, which was shown in the ratio of inhibiting the specific binding of [^125I]-iodocyanopindolol to rat lung membrane SMBS by the test compound.

Assay [1] relates to Corticosterone generation. The assay is described as follows: Assessment test of steroid hormone synthesis inhibition (Corticosterone generation in rat adrenal gland cells stimulated with cAMP). It is filed as cell-based. To be noted: inhibition rate of 10 μM test article to Corticosterone generation, 2 hours with cAMP. On the procedure: Assessment Test of Steroid Hormone Synthesis Inhibition
Control examples 1 to 4: Control example 1 was Example 350 of Patent Document 2. Control examples 2 to 4 were synthesized according to Patent Document 2.
Adrenal glands were taken out from rats, and removed excess connective tissues, adiposes and membranes in D-MEM. The adrenal glands were transferred to polytubes, and quickly segmentalized with scissors. Thereto was added D-MEM containing 1 mg/mL collagenase and […] DNase I, and then the mixture was shaken at 37° C. for 10 minutes in 80 times/minute. Then, the mixture was pipetted by 1 mL truncated pipette tip, and shaken again under the same condition. After 10 minutes, the mixture was pipetted again by 1 mL pipette tip, and the cell suspension was filtered through metal mesh. The filtrate was centrifuged at 4° C. for 5 minutes in 500 g. The supernatant was removed, and thereto was added a mixed solution of 0.16 M NH4Cl and 0.17 M Tris-HCl in 3 mL. The mixture was let stand on ice for 5 minutes, and then centrifuged under the same condition. Then, the supernatant was removed and then thereto was added D-MEM. The cell suspension was prepared and centrifuged under the same condition. Again, the supernatant was removed and then thereto was added D-MEM to give a cell suspension. The cell suspension was filtered by Cell Strainer (BD Falcon®). The filtrate was centrifuged under the same condition. After the completion of the centrifugation, the supernatant was removed, and thereto was added D-MEM containing 1% Penicillin Streptomycin Mixed Solution and 10% FBS. The mixture was seeded in Multiple well plate for adhesive cell culture, 96 wells (IWAKI) in 10000 cells/well, and incubated at 37° C. overnight in CO2 incubator.
Test article concentrations were prepared in DMSO to 2000 μM, and D-MEM containing 20 μM test article in D-MEM was prepared.
Cell-seeded plate was incubated overnight, and then the medium was removed and thereto was added D-MEM containing 20 μM test article in 50 μL/well. Then, to the mixture was promptly added D-MEM containing 20 μM cAMP in 50 μL/well so that the final concentration of the test article was 10 μM. After the addition of 2 types of D-MEM, the mixture was incubated at 37° C. for 2 hours in CO2 incubator. After 2 hours, the supernatant (50 μL) of the medium was collected. For cells, the cell toxicity of the test article was assessed according to a conventional method using Cell Titer-Glo® (Promega). For the collected supernatant, the Corticosterone concentration in the supernatant was determined according to a conventional method using Corticosterone EIA kit (Cayman).
The inhibition rate of 10 μM test article to Corticosterone generation was calculated according to the following formula confirming that the cell toxicity by the test article was not recognized.

Assay [2] has as its system Guinea Pig Late Asthma Model. The assay can be described thus: Assessment of compounds in guinea pig late asthma model. To be noted: 3 mg/kg orally one hour before antigen challenge. In kind it is in vivo. The protocol:
Assessment of Compounds in Guinea Pig Late Asthma Model
The assessment was carried out using a compound obtained in Example 1.
Hartley male guinea pigs (commercially available from Japan SLC, Inc.) were pre-bred about 1 week after arrival, and then exposed by inhalation to 2% (w/v) ovalbumin (OA) saline in a plastic box (4 guinea pigs/box) for 5 minutes using a ultrasonic nebulizer (OMRON NE-U12, condition: maximum nebulizing amounts, maximum air volume), and sensitized (day 0). The same operation was carried out on day 7. On day 14 or 15, each guinea pig was administered 2% OA by inhalation for 5 minutes to initiate a response (challenge). […]
A determination and analysis of respiratory function were carried out according to the method of Penny A. Hutson et al. Am Rev Respir Dis 1988 137, 548-557. The respiratory function was determined before the antigen challenge (before drug administration) and 5 minutes and 1, 2, 3, 4, 5, 6, 7 and 8 hours after the antigen challenge, and wave profiles were imported using MacLab Chart v3.4 (AD Instruments) and analyzed later. […] The sRaw/TV values subtracting the former values were plotted against measured times, and each area under the curve (AUC4-8hr) of each animal was calculated to compare each other in the range of 4 to 8 hours after the antigen challenge. […]

In the case of `CNC(=O)NCCn1c(-c2ccc(N3CCOCC3)nn2)cs/c1=N\c1cccc(F)c1` [Example 1, N-{2-[(2Z)-2-[(3-Fluorophenyl)imino]-3-[6-(morpholin-4-yl)pyridazinyl]-1,3-thiazol-3(2H)-yl]ethyl}-N′-methylurea], the “Binding Activity (%) (1 μM)” value in the assay on rat lung membrane SMBS is given as 103%. For the same compound, the inhibition at 10 µM in assay [1] was -2%. Besides, in assay [2] (OA-sensitized Hartley male guinea pigs, 4 to 8 hours after challenge), the “AUC4-8 hr ((sRaw/TV) · h)” value is on record as 0.411 (sRaw/TV) · h. In addition, the “Improvement Rate (%)” value in assay [2] (versus control group (0.5% MC), AUC4-8hr, p<0.01 Dunnett's test) worked out at 47%.

In the case of `CNC(=O)NCCn1c(-c2ccc(N3CCOCC3)nn2)cs/c1=N\c1ccccc1F` [Example 2], in the assay with rat lung membrane SMBS, the “Binding Activity (%) (1 μM)” value amounted to 75%. Also, in assay [1], the inhibition at 10 µM is -8%.

On to `CCNC(=O)NCCn1c(-c2ccc(N3CCOCC3)nn2)cs/c1=N\c1cccc(F)c1` [Example 5], for which the “Binding Activity (%) (1 μM)” value in the assay on rat lung membrane SMBS is listed as 83%. The inhibition at 10 µM in assay [1] is -28%.

On to `CCNC(=O)NCCn1c(-c2ccc(N3CCOCC3)nn2)cs/c1=N\c1ccc(F)cc1` [Example 7], for which the “Binding Activity (%) (1 μM)” value in the assay on rat lung membrane SMBS is 82%. The inhibition at 10 µM in assay [1] came to 15%.

Regarding `CNC(=O)NCCn1c(-c2ccc(N3CCOCC3)nn2)cs/c1=N\c1ccccc1Cl` [Example 8], the “Binding Activity (%) (1 μM)” value with rat lung membrane SMBS came to 93%. For the same compound, the inhibition at 10 µM in assay [1] was -12%.

Take `CCNC(=O)NCCn1c(-c2ccc(N3CCOCC3)nn2)cs/c1=N\c1ccc(Cl)cc1` [Example 11]: the “Binding Activity (%) (1 μM)” value with rat lung membrane SMBS is 88%. Besides, the inhibition at 10 µM in assay [1] was -8%.

Consider `CNC(=O)NCCn1c(-c2ccc(N3CCOCC3)nn2)cs/c1=N\c1cncc(C(F)(F)F)c1` [Example 15], for which the “Binding Activity (%) (1 μM)” value in the assay with rat lung membrane SMBS turned out to be 89%. In addition, in assay [1], the inhibition at 10 µM was found to be 11%.

A word on the inhibition: it is the change of the read-out against control, counted positive when it falls.
